Literature values, collected in US20080260785A1, “PAROXETINE COMPOSITIONS” (priority 2005, published 2008).

Settings: hydrochloride hemihydrate

In the case of `Cl.Fc1ccc([C@@H]2CCNC[C@H]2COc2ccc3c(c2)OCO3)cc1` [Paroxetine, (−)-trans-4R-(4′-fluorophenyl)-3S-[(3′,4′-methylenedioxyphenoxy)methyl]piperidine], the solubility in water is listed as 5400 µg/mL.
